Where a SMILES comes first, the peptide text is derived from it. Bridges are numbered along the chain shown (N, C = ends). [ ]: non-standard residue; d: D form. The star is where a group is joined. hPhe(3,5-F2-4-CF3) = N[C@@H](CCc1cc(F)c(C(F)(F)F)c(F)c1)C(=O)O; hPhe(3-Cl-4-CF3) = N[C@@H](CCc1ccc(C(F)(F)F)c(Cl)c1)C(=O)O; NPrPhe(4-CF3) = CCCN[C@@H](Cc1ccc(C(F)(F)F)cc1)C(=O)O; NEtPhe(4-Me) = CCN[C@@H](Cc1ccc(C)cc1)C(=O)O; NMeGly(cPent) = CN[C@H](C(=O)O)C1CCCC1; Hyp = O=C(O)[C@@H]1C[C@@H](O)CN1; NMeD = CN[C@@H](CC(=O)O)C(=O)O; NMeL = CN[C@@H](CC(C)C)C(=O)O; αMeL = CC(C)C[C@](C)(N)C(=O)O; Morpholide = C1CN(*)CCO1; NMeA = CN[C@@H](C)C(=O)O; Ac5c = NC1(C(=O)O)CCCC1; Aze = O=C(O)[C@@H]1CCN1; X4 = C1CCC(*)OC1; Sar = CNCC(=O)O
Tests used:
[1] = tested on: human lung cancer strain NCI-H441; format: cell-based
How it was run: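 Signal came from […] measured per well once the reagent was added. Beforehand, cells were cultured at 37°C and 5% carbon dioxide on a compound series serially diluted in dimethyl sulfoxide.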

[2] = biological target: GDP-bound NRAS wild-type protein (Homo sapiens, UniProt P01111); assay: Binding to NRAS by surface plasmon resonance (SPR), KD and KD ratio to KRAS
How it was run: (§1)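 Each cycle, GDP-bound biotin-Avi RAS was captured (~100–300 RU), compound concentrations were injected low to high for 75 s each at 100 µL/min, then the chip was regenerated. Buffer: HBS pH 7.4, 10 mM MgCl2, 10 µM GDP, 1 mM DTT, 4% DMSO; 30°C. KD from a 1:1 binding model.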

[3] = biological target: GDP-bound KRAS wild-type protein (Homo sapiens, UniProt P01116); assay: Binding to KRAS by surface plasmon resonance (SPR), dissociation constant KD
How it was run: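 Biotinylated GDP-bound RAS was captured at about 100–300 RU. Running buffer: HBS pH 7.4, 10 mM MgCl2, 10 µM GDP, 1 mM DTT, 0.01% Tween 20, 4% DMSO.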

HRAS wild-type protein = HRAS wild-type protein (Homo sapiens, UniProt P01112); assay: Binding to HRAS by surface plasmon resonance (SPR), KD and KD ratio to KRAS
How it was run: as §1

[4] = ratio of KD for GDP-bound NRAS wild-type protein to KD for KRAS
[5] = ratio of KD for HRAS wild-type protein to KD for KRAS
[6] = ratio of the KD value with respect to GDP-bound NRAS wild-type protein to the KD value with respect to KRAS
[7] = Single Cycle Kinetics, 1:1 binding model
[8] = ratio of the KD value with respect to HRAS wild-type protein to the KD value with respect to KRAS

Sequence of GDP-bound NRAS wild-type protein (P01111 whole entry): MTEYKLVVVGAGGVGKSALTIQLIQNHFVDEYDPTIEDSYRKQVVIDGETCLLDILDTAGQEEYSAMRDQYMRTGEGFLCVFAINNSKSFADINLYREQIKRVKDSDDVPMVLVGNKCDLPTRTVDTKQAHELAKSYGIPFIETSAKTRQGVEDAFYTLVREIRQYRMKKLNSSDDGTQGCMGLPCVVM
Sequence of HRAS wild-type protein (P01112 whole entry): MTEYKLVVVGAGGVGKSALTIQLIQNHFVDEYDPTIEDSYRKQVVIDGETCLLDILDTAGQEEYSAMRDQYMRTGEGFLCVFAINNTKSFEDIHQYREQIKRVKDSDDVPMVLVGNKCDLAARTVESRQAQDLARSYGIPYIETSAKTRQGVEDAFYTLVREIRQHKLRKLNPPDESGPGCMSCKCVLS
Sequence of GDP-bound KRAS wild-type protein (P01116 1-188 isoform P01116-2): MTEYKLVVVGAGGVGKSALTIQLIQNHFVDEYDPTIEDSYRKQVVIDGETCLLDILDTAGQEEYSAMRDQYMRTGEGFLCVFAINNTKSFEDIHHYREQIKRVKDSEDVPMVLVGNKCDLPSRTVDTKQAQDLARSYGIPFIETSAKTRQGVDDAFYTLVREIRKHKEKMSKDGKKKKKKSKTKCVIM

IC50 [1] [nM]	Kd ([3]; 1:1 binding model) [nM]	Kd [3, 7] [nM]	Kd ([3]; Single Cycle Kinetics) [nM]	SMILES	NRAS /KRAS [2, 4]	HRAS /KRAS (HRAS wild-type protein; [5])	NRAS /KRAS [2, 6]	HRAS /KRAS (HRAS wild-type protein; [8])	NRAS /KRAS ([2]; ratio of KD value for GDP-bound NRAS wild-type protein to KD value for KRAS (SPR))	HRAS /KRAS (HRAS wild-type protein; ratio of KD value for HRAS wild-type protein to KD value for KRAS (SPR))
25.5		0.22		CCO[C@@H]1C[C@H]2C(=O)NC3(CCC3)C(=O)N(C)[C@@H](C3CCCC3)C(=O)N(C)[C@H](C(=O)N(C)C)CC(=O)N(C)[C@@H](CCOC)C(=O)N[C@@H]([C@@H](C)CC)C(=O)N(C)CC(=O)N(C)[C@H]3CCCCCN(C3=O)[C@@H](Cc3ccc(C(F)(F)F)cc3)C(=O)N(C)CC(=O)N[C@@H](CCc3cc(F)c(C(F)(F)F)c(F)c3)C(=O)N2C1 [PP0675]			B (a compound having 3 or more and less than 10 is denoted as B)	B (a compound having 3 or more and less than 10 is denoted as B)		
4.9		0.057		CC[C@H](C)[C@@H]1NC(=O)[C@H](CC)N(C)C(=O)C[C@@H](C(=O)N2CCOCC2)N(C)C(=O)[C@H](C2CCCC2)N(C)C(=O)C2(CCCC2)NC(=O)[C@@H]2CCCN2C(=O)[C@H](CCc2cc(F)c(C(F)(F)F)c(F)c2)NC(=O)CN(C)C(=O)[C@H](Cc2ccc(C(F)(F)F)cc2)N2CCCC[C@@H](C2=O)N(C)C(=O)CN(C)C1=O [PP0550]			B (a compound having 3 or more and less than 10 is denoted as B)	B (a compound having 3 or more and less than 10 is denoted as B)		
35.3			0.46	CCO[C@@H]1C[C@H]2C(=O)NC3(CCC3)C(=O)N(C)[C@@H](C3CCCC3)C(=O)N(C)[C@H](C(=O)N3CCOCC3)CC(=O)N(C)[C@@H](COC3CC3)C(=O)N[C@@H]([C@@H](C)CC)C(=O)N(C)CC(=O)N(C)[C@H]3CCCCCN(C3=O)[C@@H](Cc3ccc(C(F)(F)F)cc3)C(=O)N(C)CC(=O)N[C@@H](CCc3cc(F)c(C(F)(F)F)c(F)c3)C(=O)N2C1 [PP0852]	B (a compound having 3 or more and less than 10 is denoted as B)	B (a compound having 3 or more and less than 10 is denoted as B)				
24.3			0.67	CCO[C@@H]1C[C@H]2C(=O)NC3(CCC3)C(=O)N(C)[C@@H](C3CCCC3)C(=O)N(C)[C@H](C(=O)N3CCOCC3)CC(=O)N(C)[C@@H](COCC(F)(F)F)C(=O)N[C@@H]([C@@H](C)CC)C(=O)N(C)CC(=O)N(C)[C@H]3CCCCCN(C3=O)[C@@H](Cc3ccc(C(F)(F)F)cc3)C(=O)N(C)CC(=O)N[C@@H](CCc3cc(F)c(C(F)(F)F)c(F)c3)C(=O)N2C1 [PP0853]	B (a compound having 3 or more and less than 10 is denoted as B)	B (a compound having 3 or more and less than 10 is denoted as B)				
68.1			0.58	CC[C@H](C)[C@@H]1NC(=O)[C@H](CC(C)C)N(C)C(=O)C[C@@H](C)N(C)C(=O)[C@H](C2CCCC2)N(C)C(=O)C2(CCC2)NC(=O)[C@@H]2CCCN2C(=O)[C@H](CCc2cc(F)c(C(F)(F)F)c(F)c2)NC(=O)CN(C)C(=O)[C@H](Cc2ccc(C(F)(F)F)cc2)N2CC/C=C\C[C@@H](C2=O)N(C)C(=O)CN(C)C1=O [PP1099]	B (a compound having 3 or more and less than 10 is denoted as B)	A (a compound having 10 or more and less than 20 is denoted as A)				

The next lines start with the molecule.

SMILES	IC50 [1] [nM]	Kd ([3]; 1:1 binding model) [nM]	Kd [3, 7] [nM]	Kd ([3]; Single Cycle Kinetics) [nM]	NRAS /KRAS [2, 4]	HRAS /KRAS (HRAS wild-type protein; [5])	NRAS /KRAS [2, 6]	HRAS /KRAS (HRAS wild-type protein; [8])	NRAS /KRAS ([2]; ratio of KD value for GDP-bound NRAS wild-type protein to KD value for KRAS (SPR))	HRAS /KRAS (HRAS wild-type protein; ratio of KD value for HRAS wild-type protein to KD value for KRAS (SPR))
CCCN1C(=O)[C@@H]2CCN2C(=O)[C@@H]2CCN2C(=O)[C@H]([C@@H](C)CC)NC(=O)[C@H](CC(C)C)N(C)C(=O)C[C@@H](C(=O)N2CCOCC2)N(C)C(=O)[C@H](C2CCCC2)N(C)C(=O)C2(CCCC2)NC(=O)[C@@H]2CCCN2C(=O)[C@H](CCc2ccc(C(F)(F)F)c(Cl)c2)NC(=O)CN(C)C(=O)[C@@H]1Cc1ccc(C(F)(F)F)cc1 [PP0168] ([NMeL]I[Aze][Aze][NPrPhe(4-CF3)][Sar][hPhe(3-Cl-4-CF3)]P[Ac5c][NMeGly(cPent)][NMeD]-Morpholide; lactam N-11)	26.6	0.67			C (A compound having a KD ratio of 0.1 or more and less than 3 is denoted as C)	B (a compound having 3 or more and less than 10 is denoted as B)				
CC[C@H](C)[C@@H]1NC(=O)[C@H](CC(C)C)N(C)C(=O)C[C@@H](C(=O)N2CCOCC2)N(C)C(=O)[C@H](C2CCCC2)N(C)C(=O)C2(CCCC2)NC(=O)[C@@H]2CCCN2C(=O)[C@H](CCc2ccc(C(F)(F)F)c(Cl)c2)NC(=O)CN(C)C(=O)[C@H](Cc2ccccc2)N2CC=CC[C@@H](C2=O)N(C)C(=O)CN(C)C1=O [PP0528]	21.8		0.37				C (A compound having a KD ratio of 0.1 or more and less than 3 is denoted as C)	C (A compound having a KD ratio of 0.1 or more and less than 3 is denoted as C)		
CCCN1C(=O)CN(C)C(=O)[C@@H]2CCN2C(=O)[C@H]([C@@H](C)CC)NC(=O)[C@H](CC(C)C)N(C)C(=O)C[C@@H](C(=O)N2CCOCC2)N(C)C(=O)[C@H](C2CCCC2)N(C)C(=O)[C@](C)(CC(C)C)NC(=O)[C@@H]2CCCN2C(=O)[C@H](CCc2cc(F)c(C(F)(F)F)c(F)c2)NC(=O)CN(C)C(=O)[C@@H]1Cc1ccc(C(F)(F)F)cc1 [PP0776] ([NMeL]I[Aze][Sar][NPrPhe(4-CF3)][Sar][hPhe(3,5-F2-4-CF3)]P[αMeL][NMeGly(cPent)][NMeD]-Morpholide; lactam N-11)	591			15	B (a compound having 3 or more and less than 10 is denoted as B)	B (a compound having 3 or more and less than 10 is denoted as B)				
CCC[C@H]1C(=O)N[C@@H](C2CCCC2)C(=O)N(C)CC(=O)N(C)[C@H]2C/C=C\CCN(C2=O)[C@@H](Cc2ccc(C)cc2)C(=O)N(C)CC(=O)N[C@@H](CCc2cc(F)c(C(F)(F)F)c(F)c2)C(=O)N2C[C@H](OCC)C[C@H]2C(=O)NC2(CC(C)(C)C2)C(=O)N(C)[C@@H](C2CCCC2)C(=O)N(C)[C@H](C(=O)N(C)C)CC(=O)N1C [PP2988]	8.1	0.29			B (a compound having 3 or more and less than 10 is denoted as B)	B (a compound having 3 or more and less than 10 is denoted as B)				
CCC[C@@H]1C[C@H]2C(=O)NC3(CC(C)(C)C3)C(=O)N(C)[C@@H](C3CCCC3)C(=O)N(C)[C@H](C(=O)N(C)C)CC(=O)N(C)[C@@H](CCC)C(=O)N[C@@H]([C@@H](C)CC)C(=O)N(C)CC(=O)N(C)[C@H]3C/C=C\CCN(C3=O)[C@@H](Cc3ccc(C)cc3)C(=O)N(C)CC(=O)N[C@@H](CCc3ccc(C(F)(F)F)c(Cl)c3)C(=O)N2C1 [PP2214]	29.6		0.3				A (a compound having 10 or more and less than 20 is denoted as A)	A (a compound having 10 or more and less than 20 is denoted as A)		
CCC[C@H]1C(=O)N[C@@H]([C@@H](C)CC)C(=O)N(C)CC(=O)N(C)[C@H]2C/C=C\CCN(C2=O)[C@@H](Cc2ccc(C(F)(F)F)cc2)C(=O)N(C)CC(=O)N[C@@H](CCc2ccc(C(F)(F)F)c(Cl)c2)C(=O)N2CC3(CC3)C[C@H]2C(=O)NC2(CC(C)(C)C2)C(=O)N(C)[C@@H](CC(F)(F)F)C(=O)N(C)[C@H](C(=O)N(C)C)CC(=O)N1C [PP2985]	46.5	1.4			AA (a compound having 20 or more is denoted as AA)	A (a compound having 10 or more and less than 20 is denoted as A)				
CCO[C@@H]1C[C@H]2C(=O)NC3(CC(C)(C)C3)C(=O)N(C)[C@@H](C3CCCC3)C(=O)N(C)[C@H](C(=O)N(C)C)CC(=O)N(C)[C@@H]([C@H](C)OC)C(=O)N[C@@H]([C@@H](C)CC)C(=O)N(C3CC3)CC(=O)N(C)[C@H]3C/C=C\CCN(C3=O)[C@@H](Cc3ccc(C(F)(F)F)cc3)C(=O)N(C)CC(=O)N[C@@H](CCc3ccc(C(F)(F)F)c(Cl)c3)C(=O)N2C1 [PP3177]	21.6	0.49			A (a compound having 10 or more and less than 20 is denoted as A)	A (a compound having 10 or more and less than 20 is denoted as A)				
CC[C@H](C)[C@@H]1NC(=O)[C@H](CC)N(C)C(=O)C[C@@H](C(=O)N(C)C)N(C)C(=O)[C@H](C2CCCC2)N(C)C(=O)C2(CCC2)N(C)C(=O)[C@@H]2C[C@@H](C)CN2C(=O)[C@H](CCc2cc(F)c(C(F)(F)F)c(F)c2)NC(=O)CN(C)C(=O)[C@H](Cc2ccc(C)cc2)N2CC/C=C\C[C@@H](C2=O)N(C)C(=O)CN(C)C1=O [PP1787]	9		0.071						A (a compound having 10 or more and less than 20 is denoted as A)	B (a compound having 3 or more and less than 10 is denoted as B)
CC[C@H](C)[C@@H]1NC(=O)[C@H](CC(C)C)N(C)C(=O)C[C@@H](C(=O)N2CCOCC2)N(C)C(=O)[C@H](C2CCCC2)N(C)C(=O)C2(CCCC2)NC(=O)[C@@H]2C[C@@H](OC3CCCCO3)CN2C(=O)[C@H](CCc2ccc(C(F)(F)F)c(Cl)c2)NC(=O)CN(C)C(=O)[C@H](Cc2ccc(C)cc2)N(CC)C(=O)[C@@H]2CCN2C(=O)[C@H](C)N(C)C1=O (some centres unmarked) [PP0067] ([NMeL]I[NMeA][Aze][NEtPhe(4-Me)][Sar][hPhe(3-Cl-4-CF3)][Hyp](X4)[Ac5c][NMeGly(cPent)][NMeD]-Morpholide; lactam N-11)	2.7	0.072			C (A compound having a KD ratio of 0.1 or more and less than 3 is denoted as C)	C (A compound having a KD ratio of 0.1 or more and less than 3 is denoted as C)				
